From article doi:10.1101/2023.07.11.548539v1, “A side-by-side comparison of peptide-delivered antisense antibiotics employing different nucleotide mimics” (bioRxiv, 2023)
Oligonucleotides are written 5' to 3', each unit as a sugar letter and its base; * is a phosphorothioate linkage, no mark a phosphodiester; rarer units and linkages stand in square brackets, end groups in braces. Plain capitals give the bases only. d = 2'-deoxy (DNA)

Tested on: Cy5 5'-labelled acpP target RNA (40 nt)
Assay: Electrophoretic mobility shift assay (EMSA)
Type: binding, Salmonella enterica
Conditions: unconjugated ASO; ASO:RNA 1.25:1 and 2.5:1, 30 min RT, native 15 % PAGE
Description: The electrophoretic mobility shift (EMSA) assay was performed with a Cy5 5’-labelled RNA (purchased from Eurofins) encompassing the sequence spanning nucleotides −20 to +20 of acpP relative to the translation start codon. For annealing, TM buffer (10 mM Tris-HCl, 50 mM MgCl2) was used. First, 20 µM RNA was denatured by incubation at 95 °C for 5 min followed by placement on ice. Then 1 µL of RNA was added to PCR tubes containing 8 µL of water. To this 1 µL of ASOs at the indicated concentrations (25 µM or 50 µM) were added to adjust ASO:RNA ratios of 1.25:1 and 2.5:1. As untreated negative control water was added instead of ASO, while a scrambled PNA sequence served as sequence-unspecific negative control (Figure 2 and Figure S2). These mixtures were incubated for 30 min at room temperature (RT), followed by the addition of 10 µL 2x Gel Loading (GL) buffer for subsequent loading on native 15 % PAA RNA gel without urea (20 µL/sample; 6 µL of a 50 bp DNA marker + 14 µL 1x GL). The gel was run at 100-120 V for 2-3 h, concomitantly stained with ethidium bromide for 15 min and imaged on Geldoc (Isogen Life Science B.V., De Meern, the Netherlands).

In the case of “DNA-PTO: 10mer phosphorothioate-modified DNA antisense oligomer, sequence CTCATACTCT, targeting acpP (antisense dC*dT*dC*dA*dT*dA*dC*dT*dC*dT)”, the “Hybridization to target RNA (band shift)” value is reported as “did not interact with the target mRNA”.
